Experimental data: patent publication US20100249071A1, “Modulators of S1P and Methods of Making And Using” (Exelixis, Inc., priority 2009, published 2010)
Read-outs that look alike come from different tables or passages of the source.

Tests used:
[1] = biological target: T1, hS1P1R (hEdg1) membrane protein (Homo sapiens, UniProt P21453); assay: hS1P1R GTPγS binding assay (Assay 3a); assay type: biochemical
T1 construct: purchased Lonza
Method in brief: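 Membranes (4 μg) expressing hS1P1R incubated 1 h at room temperature with 30 μM GDP, 0.1 nM [^35S]GTPγS, 0.25% fatty acid free BSA and serially diluted agonist in Tris-HCl pH 7.9/NaCl/MgCl2/EGTA buffer. Bound [^35S]GTPγS captured on WGA SPA beads (further 1 h) and counted.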

[2] = biological target: T2, S1P1 (Homo sapiens, UniProt P21453); assay: Tango β-arrestin recruitment assay in U2OS cells (Assay 2b); assay type: cell-based
T2 construct: host or cells: U2OS
Method in brief: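 In this agonist-mode Tango assay, U2OS cells carrying S1P1 and the reporter were serum-starved 48 h, then exposed overnight at 37 °C to compound (10 points, 3-fold, top 1 μM, 1% DMSO). β-Lactamase F460/F530 ratio was normalized to 1 μM S1P, and EC50 was fitted.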

[3] = biological target: T3, hS1PR5 (hEdg8) membrane protein (Homo sapiens, UniProt Q9H228); assay: hS1P5R GTPγS binding assay (Assay 4); assay type: biochemical
T3 construct: expressed in transfected cells; host or cells: CHO
Method in brief: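 Membranes (5 μg) from CHO cells expressing hS1PR5, incubated 1 h at room temperature with 30 μM GDP, 0.1 nM [35S]GTPγS, 0.25% fatty acid free BSA and serially diluted compound in pH 7.9 Tris buffer with MgCl2. WGA SPA beads added for another 1 h, then bound [35S]GTPγS counted by scintillation.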

[4] = biological target: T4, S1P3 (Homo sapiens, UniProt Q99500); assay: S1P3 Tango β-arrestin recruitment assay in HEK293 cells (Assay 5); assay type: cell-based
T4 construct: host or cells: HEK293 (transient transfection)
Method in brief: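 HEK293 cells transiently expressing S1P3 fused via TEV-cleavable linker to tTA, with β-arrestin2–TEV, treated 16-18 h at 37 °C with compounds (top 10 μM, 10-point 3-fold, 1% DMSO). Luciferase reporter luminescence normalised to DMSO background and 5 μM S1P control as percent activity; EC50 from concentration-response curves.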

[5] = * = rEC50 measured rather than EC50, read-out: Assay 2b rEC50 (relative EC50, cells marked *)

T1 sequence (P21453 whole entry): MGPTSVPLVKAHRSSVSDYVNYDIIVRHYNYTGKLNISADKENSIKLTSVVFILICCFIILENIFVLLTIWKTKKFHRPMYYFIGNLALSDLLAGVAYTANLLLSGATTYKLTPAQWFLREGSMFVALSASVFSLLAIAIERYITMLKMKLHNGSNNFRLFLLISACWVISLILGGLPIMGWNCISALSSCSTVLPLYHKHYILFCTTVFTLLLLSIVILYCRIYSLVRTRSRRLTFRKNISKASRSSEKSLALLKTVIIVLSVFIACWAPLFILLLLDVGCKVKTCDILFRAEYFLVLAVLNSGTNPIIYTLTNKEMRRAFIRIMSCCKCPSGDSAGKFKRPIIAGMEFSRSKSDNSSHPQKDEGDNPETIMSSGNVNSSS
T3 sequence (Q9H228 whole entry): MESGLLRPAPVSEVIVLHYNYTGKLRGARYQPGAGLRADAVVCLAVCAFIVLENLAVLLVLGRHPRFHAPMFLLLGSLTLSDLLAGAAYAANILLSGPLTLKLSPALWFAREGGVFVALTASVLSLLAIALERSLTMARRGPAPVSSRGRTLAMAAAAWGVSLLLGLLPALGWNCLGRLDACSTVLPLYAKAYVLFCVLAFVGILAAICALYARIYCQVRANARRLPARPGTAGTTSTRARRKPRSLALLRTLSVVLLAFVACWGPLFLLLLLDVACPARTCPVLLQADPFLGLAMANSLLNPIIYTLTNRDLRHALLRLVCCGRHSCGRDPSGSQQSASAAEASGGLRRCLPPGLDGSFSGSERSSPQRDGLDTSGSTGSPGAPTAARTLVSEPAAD
T2 sequence (P32121 whole entry): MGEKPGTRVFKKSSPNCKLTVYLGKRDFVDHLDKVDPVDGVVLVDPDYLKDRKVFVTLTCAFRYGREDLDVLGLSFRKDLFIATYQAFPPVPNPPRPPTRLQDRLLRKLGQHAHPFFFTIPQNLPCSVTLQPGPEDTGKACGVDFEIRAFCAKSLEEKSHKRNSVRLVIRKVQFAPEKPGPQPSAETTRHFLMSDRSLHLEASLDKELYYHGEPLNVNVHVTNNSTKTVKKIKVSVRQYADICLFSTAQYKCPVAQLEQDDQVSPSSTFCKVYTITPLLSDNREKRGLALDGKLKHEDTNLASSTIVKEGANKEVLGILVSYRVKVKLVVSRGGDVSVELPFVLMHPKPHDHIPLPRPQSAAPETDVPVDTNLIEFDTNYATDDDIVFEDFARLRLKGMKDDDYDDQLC
T2 sequence (P21453 whole entry): as the sequence (P21453 whole entry) above
T4 sequence (P32121 whole entry): as the sequence (P32121 whole entry) above
T4 sequence (Q99500 whole entry): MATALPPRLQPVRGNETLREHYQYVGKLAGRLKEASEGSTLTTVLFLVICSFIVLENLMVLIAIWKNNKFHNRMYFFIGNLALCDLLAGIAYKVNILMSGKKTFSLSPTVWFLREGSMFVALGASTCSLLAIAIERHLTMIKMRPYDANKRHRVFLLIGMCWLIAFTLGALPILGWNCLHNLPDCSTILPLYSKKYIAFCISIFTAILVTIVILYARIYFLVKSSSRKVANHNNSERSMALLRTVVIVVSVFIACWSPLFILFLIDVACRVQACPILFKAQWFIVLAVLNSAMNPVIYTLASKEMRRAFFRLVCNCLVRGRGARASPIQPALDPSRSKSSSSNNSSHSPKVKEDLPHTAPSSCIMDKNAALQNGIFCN

Row | SMILES | EC50 [1] [nM] | EC50 [2, 5] [nM] | EC50 [3] [nM] | EC50 ([4]; read-out: Assay 5 EC50) [nM] | EC50 ([2]; read-out: Assay 2b EC50) [nM] | EC50 ([4]; * = rEC50 measured rather than EC50, read-out: Assay 5 rEC50 (relative EC50, cells marked *)) [nM]
1 | CC(C)Oc1ccc(-c2nnc(-c3cc(F)c(OC[C@@H](N)[C@H](C)O)cc3Cl)s2)cc1Cl [Entry 71, (2S,3R)-3-amino-4-{[5-chloro-4-(5-{3-chloro-4-[(1-methylethyl)oxy]phenyl}-1,3,4-thiadiazol-2-yl)-2-fluorophenyl]oxy}butan-2-ol] | ≤ 10 | ≤ 10 | 10 to 50 | ≤ 250 |  | 
2 | CC(C)Oc1ccc(-c2nnc(-c3cc(F)c(OC[C@@H](N)[C@@H](C)O)cc3Cl)s2)cc1Cl [Entry 74, (2R,3R)-3-amino-4-{[5-chloro-4-(5-{3-chloro-4-[(1-methylethyl)oxy]phenyl}-1,3,4-thiadiazol-2-yl)-2-fluorophenyl]oxy}butan-2-ol] | ≤ 10 |  | 10 to 50 | > 250 | ≤ 10 | 
3 | CC(C)Nc1ccc(-c2nnc(-c3cc(F)c(OC[C@H](N)CO)cc3Cl)s2)cn1 [Entry 75, (2R)-2-amino-3-{[5-chloro-2-fluoro-4-(5-{6-[(1-methylethyl)amino]pyridin-3-yl}-1,3,4-thiadiazol-2-yl)phenyl]oxy}propan-1-ol] | 250 to 2800 |  | 250 to 2800 | > 10000 | 10 to 50 | 
4 | CCOc1ccc(-c2nnc(-c3cc(F)c(OC[C@H](N)CO)cc3Cl)s2)cc1C#N [Entry 76, 5-[5-(4-{[(2R)-2-amino-3-hydroxyporpyl]oxy}-2-chloro-5-fluorophenyl)-1,3,4-thiadiazol-2-yl]-2-(ethyloxy)benzonitrile] | ≤ 10 |  | 50 to 250 | > 10000 | 10 to 50 | 
5 | COCCOc1ccc(-c2nnc(-c3cc(F)c(OC[C@H](N)CO)cc3Cl)s2)cc1C#N [Entry 78, 5-[5-(4-{[(2R)-2-amino-3-hydroxyporpyl]oxy}-2-chloro-5-fluorophenyl)-1,3,4-thiadiazol-2-yl]-2-{[2-(methyloxy)ethyl]oxy}benzonitrile] | 50 to 250 |  | 250 to 2800 | > 10000 | 10 to 50 | 
6 | CC(C)Oc1ccc(-c2nnc(-c3cc(F)c(OC[C@H](N)COP(=O)(O)O)cc3Cl)s2)cc1C#N [Entry 79, (2S)-2-amino-3-{[5-chloro-4-(5-{3-cyano-4-[(1-methylethyl)oxy]phenyl}-1,3,4-thiadiazol-2-yl)-2-fluorophenyl]oxy}propyl dihydrogen phosphate] | ≤ 10 |  | ≤ 10 | ≤ 250 | ≤ 10 | 
7 | CC(C)Oc1ccc(-c2nnc(-c3cc(F)c(OC[C@H](N)CO)cc3Cl)s2)cc1C(N)=O [Entry 80, 5-[5-(4-{[(2R)-2-amino-3-hydroxypropyl]oxy}-2-chloro-5-fluorophenyl)-1,3,4-thiadiazol-2-yl]-2-[(1-methylethyl)oxy]benzamide] | 250 to 2800 | 250 to 2800 | 250 to 2800 | > 10000 |  | 
8 | CC(C)Nc1ncc(-c2nnc(-c3cc(F)c(OC[C@H](N)CO)cc3Cl)s2)cc1Cl [Entry 81, (2R)-2-amino-3-{[5-chloro-4-(5-{5-chloro-6-[(1-methylethyl)amino]pyridin-3-yl}-1,3,4-thiadiazol-2-yl)-2-fluorophenyl]oxy}propan-1-ol] | 10 to 50 |  | 250 to 2800 | > 10000 | 10 to 50 | 
9 | CC(C)Oc1ccc(-c2nnc(-c3cc(F)c(OC[C@H](N)[C@@H](C)O)cc3Cl)s2)cc1C#N [Entry 82, 5-[5-(4-{[(2S,3R)-2-amino-3-hydroxybutyl]oxy}-2-chloro-5-fluorophenyl)-1,3,4-thiadiazol-2-yl]-2-[(1-methylethyl)oxy]benzonitrile] | ≤ 10 |  | 10 to 50 | > 10000 | ≤ 10 | 
10 | CC(C)Oc1ccc(-c2nnc(-c3cc(F)c(OC[C@H](N)[C@H](C)O)cc3Cl)s2)cc1C#N [Entry 83, 5-[5-(4-{[(2S,3S)-2-amino-3-hydroxybutyl]oxy}-2-chloro-5-fluorophenyl)-1,3,4-thiadiazol-2-yl]-2-[(1-methylethyl)oxy]benzonitrile] | ≤ 10 |  | 10 to 50 | > 10000 | ≤ 10 | 
11 | CC(C)Nc1ccc(-c2nnc(-c3cc(F)c(OC[C@H](N)[C@@H](C)OP(=O)(O)O)cc3Cl)s2)cn1 [Entry 85, (1R,2S)-2-amino-3-{[5-chloro-2-fluoro-4-(5-{6-[(1-methylethyl)amino]pyridin-3-yl}-1,3,4-thiadiazol-2-yl)phenyl]oxy}-1-methylpropyl dihydrogen phosphate] | ≤ 10 |  | 10 to 50 | > 10000 | ≤ 10 | 
12 | CC(C)Oc1ccc(-c2nnc(-c3cc(F)c(OC[C@@H](N)[C@@H](C)O)cc3Cl)s2)cc1C#N [Entry 86, 5-[5-(4-{[(2R,3R)-2-amino-3-hydroxybutyl]oxy}-2-chloro-5-fluorophenyl)-1,3,4-thiadiazol-2-yl]-2-[(1-methylethyl)oxy]benzonitrile] | ≤ 10 |  | 10 to 50 |  | ≤ 10 | > 250
13 | CC(C)Nc1ncc(-c2nnc(-c3cc(F)c(OC[C@H](N)CO)cc3Cl)s2)cn1 [Entry 89, (2R)-2-amino-3-{[5-chloro-2-fluoro-4-(5-{2-[(1-methylethyl)amino]pyrimidin-5-yl}-1,3,4-thiadiazol-2-yl)phenyl]oxy}propan-1-ol] | 50 to 250 |  | 250 to 2800 | > 10000 | 10 to 50 | 
14 | CC(C)Nc1ncc(-c2nnc(-c3cc(F)c(OC[C@@H](N)CO)cc3Cl)s2)cn1 [Entry 90, (2S)-2-amino-3-{[5-chloro-2-fluoro-4-(5-{2-[(1-methylethyl)amino]pyrimidin-5-yl}-1,3,4-thiadiazol-2-yl)phenyl]oxy}propan-1-ol] | 50 to 250 | ≤ 10 | 250 to 2800 | ≤ 250 |  | 
15 | CC(C)Nc1ccc(-c2nnc(-c3cc(F)c(OC[C@@H](N)[C@H](C)OP(=O)(O)O)cc3Cl)s2)cn1 [Entry 93, (1S,2R)-2-amino-3-{[5-chloro-2-fluoro-4-(5-{6-[(1-methylethyl)amino]pyridin-3-yl}-1,3,4-thiadiazol-2-yl)phenyl]oxy}-1-methylpropyl dihydrogen phosphate] | ≤ 10 | ≤ 10 | 10 to 50 | > 250 |  | 
16 | Cc1cc(-c2nnc(-c3cc(F)c(OC[C@H](N)[C@@H](C)OP(=O)(O)O)cc3Cl)s2)cc(NC(C)C)n1 [Entry 94, (1R,2S)-2-amino-3-{[5-chloro-2-fluoro-4-(5-{2-methyl-6-[(1-methylethyl)amino]pyridin-4-yl}-1,3,4-thiadiazol-2-yl)phenyl]oxy}-1-methylpropyl dihydrogen phosphate] | ≤ 10 | ≤ 10 | 10 to 50 | ≤ 250 |  | 
17 | Cc1cc(-c2nnc(-c3cc(F)c(OC[C@H](N)[C@H](C)OP(=O)(O)O)cc3Cl)s2)cc(NC(C)C)n1 [Entry 95, (1S,2S)-2-amino-3-{[5-chloro-2-fluoro-4-(5-{2-methyl-6-[(1-methylethyl)amino]pyridin-4-yl}-1,3,4-thiadiazol-2-yl)phenyl]oxy}-1-methylpropyl dihydrogen phosphate] | ≤ 10 |  | 50 to 250 | > 250 | ≤ 10 | 
18 | Cc1cc(-c2nnc(-c3cc(F)c(OC[C@@H](N)[C@H](C)O)cc3Cl)s2)cnc1NC(C)C [Entry 96, (2S,3R)-3-amino-4-{[5-chloro-2-fluoro-4-(5-{5-methyl-6-[(1-methylethyl)amino]pyridin-3-yl}-1,3,4-thiadiazol-2-yl)phenyl]oxy}butan-2-ol] | 250 to 2800 |  | 2800 to 10000 | > 10000 | ≤ 10 | 
19 | Cc1cc(-c2nnc(-c3cc(F)c(OC[C@@H](N)[C@@H](C)O)cc3Cl)s2)cc(NC(C)C)n1 [Entry 97, (2R,3R)-3-amino-4-{[5-chloro-2-fluoro-4-(5-{2-methyl-6-[(1-methylethyl)amino]pyridin-4-yl}-1,3,4-thiadiazol-2-yl)phenyl]oxy}butan-2-ol] | ≤ 10 |  | 50 to 250 | > 250 | ≤ 10 | 
20 | Cc1cc(-c2nnc(-c3cc(F)c(OC[C@@H](N)[C@H](C)O)cc3Cl)s2)cc(NC(C)C)n1 [Entry 98, (2S,3R)-3-amino-4-{[5-chloro-2-fluoro-4-(5-{2-methyl-6-[(1-methylethyl)amino]pyridin-4-yl}-1,3,4-thiadiazol-2-yl)phenyl]oxy}butan-2-ol] | ≤ 10 |  | 50 to 250 | ≤ 250 | ≤ 10 | 
21 | Cc1nc(-c2nnc(-c3cc(F)c(OC[C@H](N)[C@@H](C)O)cc3Cl)s2)ccc1NC(C)C [Entry 103, (2R,3S)-3-amino-4-{[5-chloro-2-fluoro-4-(5-{6-methyl-5-[(1-methylethyl)amino]pyridin-2-yl}-1,3,4-thiadiazol-2-yl)phenyl]oxy}butan-2-ol] | 10 to 50 |  | 10 to 50 | > 250 | 10 to 50 | 
